Key:
Bovine cardiac myosin = Bovine cardiac myosin (Bos taurus (Bovine), UniProt Q9BE39); assay: Cardiac muscle myosin II actin-activated ATPase assay (NADH-coupled); type: biochemical; parameters: key to Ratio CMMII:NMII Ki/EC50: NMII-sel: no Ki value for cardiac myosin II could be determined; the compounds had no detectable inhibitory properties versus the cardiac myosin II; details: for Ki: 300 nM cardiac myosin, 10 μM actin, 25° C., read-out: CMMII KI; for Ratio CMMII:NMII Ki/EC50: cardiac myosin II Ki over nonmuscle myosin II EC50
Chain of Bovine cardiac myosin (Q9BE39 whole entry): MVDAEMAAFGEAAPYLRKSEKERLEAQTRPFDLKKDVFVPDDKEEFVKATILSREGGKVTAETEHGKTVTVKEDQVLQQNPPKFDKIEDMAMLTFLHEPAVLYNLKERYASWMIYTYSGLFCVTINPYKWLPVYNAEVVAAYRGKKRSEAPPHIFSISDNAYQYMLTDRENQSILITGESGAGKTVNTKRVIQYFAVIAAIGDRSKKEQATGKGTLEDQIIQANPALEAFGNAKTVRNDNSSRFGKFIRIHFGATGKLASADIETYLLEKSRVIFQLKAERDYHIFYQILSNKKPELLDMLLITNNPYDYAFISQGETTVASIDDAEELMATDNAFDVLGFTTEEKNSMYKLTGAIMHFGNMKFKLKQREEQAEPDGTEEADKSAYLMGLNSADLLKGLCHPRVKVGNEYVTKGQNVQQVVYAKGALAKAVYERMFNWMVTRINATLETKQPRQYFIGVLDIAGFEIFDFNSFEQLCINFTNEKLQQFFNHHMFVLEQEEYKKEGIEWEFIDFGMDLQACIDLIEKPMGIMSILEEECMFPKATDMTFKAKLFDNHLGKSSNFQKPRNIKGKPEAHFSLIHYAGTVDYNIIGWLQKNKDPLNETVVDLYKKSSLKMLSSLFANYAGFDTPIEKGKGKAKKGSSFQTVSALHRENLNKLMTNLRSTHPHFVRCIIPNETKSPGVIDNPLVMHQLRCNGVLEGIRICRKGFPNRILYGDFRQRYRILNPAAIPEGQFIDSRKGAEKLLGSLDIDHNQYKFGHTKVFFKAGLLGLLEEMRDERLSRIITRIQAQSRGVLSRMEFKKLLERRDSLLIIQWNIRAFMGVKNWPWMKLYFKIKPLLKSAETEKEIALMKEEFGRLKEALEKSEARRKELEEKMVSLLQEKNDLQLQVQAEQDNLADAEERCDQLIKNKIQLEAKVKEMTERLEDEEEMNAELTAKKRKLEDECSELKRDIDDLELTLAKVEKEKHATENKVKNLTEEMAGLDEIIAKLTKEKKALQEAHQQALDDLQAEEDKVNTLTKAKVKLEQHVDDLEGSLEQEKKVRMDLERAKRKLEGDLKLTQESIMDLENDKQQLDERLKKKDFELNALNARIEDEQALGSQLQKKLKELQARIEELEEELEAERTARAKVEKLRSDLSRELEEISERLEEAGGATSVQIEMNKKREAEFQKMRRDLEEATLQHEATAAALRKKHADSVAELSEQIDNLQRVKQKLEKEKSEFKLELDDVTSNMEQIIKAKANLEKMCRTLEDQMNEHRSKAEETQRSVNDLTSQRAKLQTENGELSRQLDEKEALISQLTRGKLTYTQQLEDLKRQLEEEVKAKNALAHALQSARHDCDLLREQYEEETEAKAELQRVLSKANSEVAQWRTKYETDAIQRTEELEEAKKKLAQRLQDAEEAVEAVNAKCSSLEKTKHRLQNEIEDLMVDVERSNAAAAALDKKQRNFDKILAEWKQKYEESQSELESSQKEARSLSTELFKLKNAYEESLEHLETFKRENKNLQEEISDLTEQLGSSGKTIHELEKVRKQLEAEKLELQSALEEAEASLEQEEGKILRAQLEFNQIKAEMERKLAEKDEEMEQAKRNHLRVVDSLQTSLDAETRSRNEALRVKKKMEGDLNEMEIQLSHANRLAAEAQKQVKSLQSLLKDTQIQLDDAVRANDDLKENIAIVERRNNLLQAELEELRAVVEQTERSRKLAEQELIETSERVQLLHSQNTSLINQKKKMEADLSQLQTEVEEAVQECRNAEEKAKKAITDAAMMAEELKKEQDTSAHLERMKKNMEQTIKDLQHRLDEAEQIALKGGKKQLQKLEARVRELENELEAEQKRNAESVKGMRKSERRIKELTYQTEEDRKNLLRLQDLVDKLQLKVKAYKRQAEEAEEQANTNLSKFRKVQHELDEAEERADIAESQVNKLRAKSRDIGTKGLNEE
Chain of Bovine cardiac myosin (P85100 whole entry partner): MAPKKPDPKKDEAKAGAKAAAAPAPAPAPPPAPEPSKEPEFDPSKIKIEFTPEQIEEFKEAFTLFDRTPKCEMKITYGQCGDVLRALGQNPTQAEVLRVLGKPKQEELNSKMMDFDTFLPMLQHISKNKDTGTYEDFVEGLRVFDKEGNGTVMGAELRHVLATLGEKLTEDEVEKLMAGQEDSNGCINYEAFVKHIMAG
Chain of Bovine cardiac myosin (Q3SZE5 whole entry partner): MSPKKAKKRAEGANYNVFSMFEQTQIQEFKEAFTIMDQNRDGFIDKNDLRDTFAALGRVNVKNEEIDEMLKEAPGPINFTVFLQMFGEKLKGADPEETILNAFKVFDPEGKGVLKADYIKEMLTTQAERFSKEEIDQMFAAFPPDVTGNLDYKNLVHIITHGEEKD
Procedure, shortened: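 Inhibitory constants came from a quadratic one-to-one binding fit of 16-point dose-responses (highest final 50 uM, triplicate). Rates were NADH-calibrated fluorescence slopes over 30 min at 25° C, with 300 nM bovine cardiac myosin, 10 μM actin and 1 mM ATP coupled through PK/LDH in pH 7.0 MOPS buffer.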

Rabbit skeletal myosin = assay: Skeletal muscle myosin II actin-activated ATPase assay; type: biochemical; details: 20 nM skeletal muscle myosin II; read-out: SKMMII KI
Procedure, shortened: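 Inhibitory constants come from a quadratic one-site fit of 16-point, triplicate dose-response data, highest compound concentration 50 uM. Rates are slopes of NADH fluorescence decline over 30 min, coupling ATP turnover of 20 nM rabbit skeletal myosin II with 10 μM actin and 1 mM ATP via PK/LDH, pH 7.0, 25 °C.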

[1] = Photostability, percentage remaining undegraded under illumination or in the dark; details: for Photostability 4 hours: percentage remaining undegraded after 4 hours illumination; for Photostability 24 hours: percentage remaining undegraded after 24 hours illumination; for Photostability Dark (24 h): percentage remaining undegraded in the dark

Row | Compound | Ki (Bovine cardiac myosin) [µM] | Ratio CMMII:NMII Ki/EC50 (Bovine cardiac myosin) | Ki (Rabbit skeletal myosin) [µM] | Photostability 4 hours [1] [%] | Photostability 24 hours [1] [%] | Photostability Dark (24 h) [1] [%]
1 | Cc1ccc2c(c1)C(=O)[C@]1(O)CCN(c3ccc4c(c3)OCCN4)C1=N2 [BPN-0027412] | 21 | 3.6 | 2.7 | 90.8 | 67.7 | 95.5
2 | Cc1ccc2c(c1)C(=O)[C@]1(O)CCN(c3ccn4ncnc4c3)C1=N2 [BPN-0027441] | 230 | 4.6 | 12 | 97.2 | 71.4 | 91.8
3 | Cc1ccc2c(c1)C(=O)[C@]1(O)CCN(c3cc4ncccc4s3)C1=N2 [BPN-0027468] |  | NMII-sel | 1.2 | 83.3 | 77.5 | 98.3
4 | Cc1cc2c(cc1C)C(=O)[C@]1(O)CCN(c3ccc4nc(C#N)ccc4c3)C1=N2 [BPN-0027492] |  | NMII-sel | 2.6 | 95.1 | 66.9 | >99
5 | Cc1ccc2c(c1)C(=O)[C@]1(O)CCN(c3ccc4nc(N)ccc4c3)C1=N2 [BPN-0027494] |  | NMII-sel | 4.7 | 63.5 | <1.0 | 88.4
6 | Cc1cc2c(cc1C)C(=O)[C@]1(O)CCN(c3ccc4nnsc4c3)C1=N2 [BPN-0028550] | 70 | 7.5 | 9.4 | 92.7 | 77.6 | 89.4
7 | Cc1cc2c(cc1C)C(=O)[C@]1(O)CCN(c3ccc4c(c3)OCCN4)C1=N2 [BPN-0028552] | 26 | 21.7 | 2.5 | 87.7 | 62.2 | 91.8
8 | Cc1ccc2c(c1)C(=O)[C@]1(O)CCN(c3ccc4nc(CO)ccc4c3)C1=N2 [BPN-0028554] | 120 | 12.4 | 9 | 87.6 | 35.9 | 97.6
9 | Cc1cc2c(cc1C)C(=O)[C@]1(O)CCN(c3ccc4oc(CO)cc4c3)C1=N2 [BPN-0028555] | 4.6 | 6.1 | 1.5 | 4.7 | <1 | 93.6
10 | Cc1cc(N2CC[C@@]3(O)C(=O)c4cc(C)c(C)cc4N=C23)ccn1 [BPN-0028616] | 200 | 13.3 | 11 | 93.2 | 71.0 | 89.4
11 | CCC1=CC2N=C3N(c4ccc5ncccc5c4)CC[C@@]3(O)C(=O)C2S1 (some centres unmarked) [BPN-0028625] | 300 | 56.6 | 8.9 | 84.4 | 84.6 | 81.8
12 | Cc1ccc2c(c1)C(=O)[C@]1(O)CCN(c3cnc(C#N)c(Cl)c3)C1=N2 [BPN-0028646] |  | NMII-sel | 1.3 | >99 | 97.1 | 98.2
13 | Cc1cc2c(cc1C)C(=O)[C@]1(O)CCN(c3cnc(CO)c(Cl)c3)C1=N2 [BPN-0028649] | 30 | 7.1 | 2.7 | 96.7 | 73.1 | 98.4

Stronger by Ki (Rabbit skeletal myosin), values ahead:

Row | Ki (Bovine cardiac myosin) [µM] | Ratio CMMII:NMII Ki/EC50 (Bovine cardiac myosin) | Ki (Rabbit skeletal myosin) [µM] | Photostability 4 hours [1] [%] | Photostability 24 hours [1] [%] | Photostability Dark (24 h) [1] [%] | Compound
14 | 51 | 8.1 | 1.1 | 81.8 | 6.4 | 98.8 | Cc1ccc2c(c1)C(=O)[C@]1(O)CCN(c3ccc4sc(C)nc4c3)C1=N2 [BPN-0027411]
15 | 26 | 33.3 | 0.94 | 76.1 | 8.5 | >99 | Cc1cc2c(cc1C)C(=O)[C@]1(O)CCN(c3cnc4sccc4c3)C1=N2 [BPN-0027489]
16 |  | NMII-sel | 0.9 | 49.4 | 20.0 | 96.4 | Cc1cc2c(cc1C)C(=O)[C@]1(O)CCN(c3ccn4nccc4c3)C1=N2 [BPN-0027488]
17 |  | NMII-sel | 0.68 | 58.8 | 44.3 | >99 | Cc1ccc2c(c1)C(=O)[C@]1(O)CCN(c3cc4cccnc4s3)C1=N2 [BPN-0027469]
18 | 24 | 10.4 | 0.68 | 54.0 | 6.7 | 97.1 | Cc1nc2cc(N3CC[C@@]4(O)C(=O)c5cc(C)c(C)cc5N=C34)ccc2s1 [BPN-0027491]
19 |  | NMII-sel | 0.41 | 80.8 | 6.8 | 98.5 | Cc1ccc2cc(N3CC[C@@]4(O)C(=O)c5cc(C)c(C)cc5N=C34)ccc2n1 [BPN-0027490]
20 | 4.4 | 3.4 | 0.26 | 52.5 | <1 | 98.4 | COc1ccc(N2CC[C@@]3(O)C(=O)c4cc(C)c(C)cc4N=C23)cn1 [BPN-0028648]

Source: patent US20250163056A1, “NONMUSCLE MYOSIN II INHIBITORS” (The University of Florida Research Foundation, Inc., priority 2018, published 2025)
